Results from ChEMBL document CHEMBL5154729, “A fragment integrational approach to GPCR inhibition: Identification of a high affinity small molecule CXCR4 antagonist” (Eur J Med Chem, 2022).
Active and inactive are the calls of the source. No cut-off for these calls is given here.

Columns and labels:
[1] = molecular target: T1, C-X-C chemokine receptor type 4 (Homo sapiens, UniProt P61073); experiment: Binding affinity to CXCR4 (unknown origin) expressed in CHO cells measured by Scatchard plot analysis; format: cell-based
[2] = molecular target: T1, C-X-C chemokine receptor type 4; experiment: Antagonist activity at CXCR4 receptor expressed in CHO cells transfected with NFAT-RE-luc2P assessed as reduction in SDF-1alpha-mediated calcium signaling pathway at 10 uM and measured by luciferase reporter gene assay; format: functional, cell-based; details: filed as antagonist
[3] = molecular target: T1, C-X-C chemokine receptor type 4; experiment: Binding affinity to CXCR4 (unknown origin) expressed in CHO cells measured by 12G5 competitive binding method; format: cell-based
CHO = experiment: Binding affinity to CXCR4 D262E mutant (unknown origin) expressed in CHO cells at 100 nM measured by 12G5 competitive binding method; format: cell-based; details: Homo sapiens, filed as antagonist
[4] = system: C-X-C chemokine receptor type 4 (Homo sapiens), P61073 [D262A]; experiment: Binding affinity to CXCR4 D262A mutant (unknown origin) expressed in CHO cells at 100 nM measured by 12G5 competitive binding method; format: cell-based; details: filed as antagonist
[5] = molecular target: T1, C-X-C chemokine receptor type 4; experiment: Antagonist activity at CXCR4 receptor expressed in CHO cells transfected with CRE-luc2P assessed as reduction in forskolin-stimulated SDF-1alpha-mediated inhibition of cAMP production at 10 uM and measured by luciferase reporter gene assay; format: functional, cell-based; details: filed as antagonist
[6] = molecular target: T1, C-X-C chemokine receptor type 4; experiment: Antagonist activity at CXCR4 receptor in human SUP-T1 assessed as inhibition of SDF-1alpha-induced CXCR4 internalization at 0.1 to 10 uM and measured by flow cytometry analysis; format: functional, cell-based; details: filed as antagonist, dose 0.1-10 µM, DDE = dose-dependent effect
[7] = system: C-X-C chemokine receptor type 4 (Homo sapiens), P61073 [E288D]; experiment: Binding affinity to CXCR4 E288D mutant (unknown origin) expressed in CHO cells at 100 nM measured by 12G5 competitive binding method; format: cell-based; details: filed as antagonist
SUP-T1 = experiment: Cytotoxicity against human SUP-T1 cells at 10 to 50 uM after 72 hrs CellTiter-96 assay; format: toxicity, cell-based; details: sup-t1, 72 h, dose 10-50 µM
[8] = molecular target: T1, C-X-C chemokine receptor type 4; experiment: Antagonist activity at CXCR4 receptor expressed in CHO cells transfected with […] assessed as reduction in SDF-1alpha-mediated RhoA activation at 10 uM and measured by luciferase reporter gene assay; format: functional, cell-based; details: filed as antagonist
[9] = system: C-X-C chemokine receptor type 4 (Homo sapiens), P61073 [E288A]; experiment: Binding affinity to CXCR4 E288A mutant (unknown origin) expressed in CHO cells at 100 nM measured by 12G5 competitive binding method; format: cell-based; details: filed as antagonist
[10] = system: Human immunodeficiency virus 1; experiment: Antiviral activity against HIV1 NL4-3 virus infected in human CEM-GFP cells assessed as reduction in CXCR4-mediated HIV-1 infection at 0.1 to 10000 nM measured by fluorescence assay; format: functional, organism-based; details: dose 0.1-10000 nM
[11] = molecular target: T1, C-X-C chemokine receptor type 4; experiment: Antagonist activity at CXCR4 receptor in SDF-1alpha-stimulated human SUP-T1 cells measured by calcium mobilization assay; format: functional, cell-based
[12] = molecular target: T1, C-X-C chemokine receptor type 4; experiment: Antagonist activity at CXCR4 receptor in CHO cells expressing EGFP-CXCR4 assessed as inhibition of SDF-1alpha-induced CXCR4 internalization at 1 to 100 nM and measured by confocal microscopy; format: functional, cell-based; details: filed as antagonist, dose 1-100 nM
CCRF-CEM = experiment: Cytotoxicity against human CEM-GFP cells at 0.32 to 25000 nM measured by CellTiter-Blue cell viability assay; format: toxicity, cell-based; details: 25 µM, dose 0.32-25000 nM
[13] = molecular target: T1, C-X-C chemokine receptor type 4; experiment: Antagonist activity at CXCR4 receptor expressed in CHO cells transfected with SRE-luc2P assessed as reduction in SDF-1alpha-mediated ERK/MAPK activation at 10 uM and measured by luciferase reporter gene assay; format: functional, cell-based; details: filed as antagonist

T1 sequence (P61073 whole entry): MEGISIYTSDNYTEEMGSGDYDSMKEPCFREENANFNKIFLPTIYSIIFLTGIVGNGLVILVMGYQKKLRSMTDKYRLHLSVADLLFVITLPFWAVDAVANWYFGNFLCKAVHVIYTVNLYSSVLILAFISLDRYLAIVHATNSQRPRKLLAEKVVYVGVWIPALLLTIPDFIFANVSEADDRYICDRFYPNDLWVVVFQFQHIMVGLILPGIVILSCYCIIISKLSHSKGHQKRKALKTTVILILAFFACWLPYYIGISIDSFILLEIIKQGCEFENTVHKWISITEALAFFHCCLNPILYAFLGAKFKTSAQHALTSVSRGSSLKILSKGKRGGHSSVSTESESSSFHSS
Chain of C-X-C chemokine receptor type 4 (Homo sapiens), P61073 [D262A] (P61073 whole entry D262A): as the sequence (P61073 whole entry) above, with D262A counted along it
Chain of C-X-C chemokine receptor type 4 (Homo sapiens), P61073 [E288D] (P61073 whole entry E288D): as the sequence (P61073 whole entry) above, with E288D counted along it
Chain of C-X-C chemokine receptor type 4 (Homo sapiens), P61073 [E288A] (P61073 whole entry E288A): as the sequence (P61073 whole entry) above, with E288A counted along it

Kd [1] [nM]	Activity [2]	IC50 [3] [nM]	Activity [4] [%]	Activity [5]	inhibition [6]	Activity [7] [%]	Activity [8]	Activity [9] [%]	IC50 [11] [nM]	inhibition [12]	Activity [13]	Compound	Activity (CHO) [%]	Activity (SUP-T1)	Activity [10]	Activity (CCRF-CEM)
33												N/C(=N\C(=O)CCCCCNC(=S)Nc1ccc2c(c1)C(=O)OC21c2ccc(O)cc2Oc2cc(O)ccc21)NCCC[C@H](NCc1ccccn1)C(=O)NCc1ccc(CNCCCNC2CCCCC2)cc1				
	Active	12	> 40	Active	Dde	> 60	Active	> 90	1.6	Active	Active	N=C(N)NCCC[C@H](NCc1ccccn1)C(=O)NCc1ccc(CNCCCNC2CCCCC2)cc1	> 60	Non-Toxic	Active	Non-Toxic
					Dde							c1cc(CN2CCCNCCNCCCNCC2)ccc1CN1CCCNCCNCCCNCC1				
